How the values were obtained:
IP L1210/Cisplatin = assay: Activity against IP-implanted L1210/Cisplatin leukemia resistant to cisplatin, 30 day test (Table 3); format: in vivo, Female CD2Fl mice
Protocol: (§1) Biological properties of the compounds of the present invention were determined following the protocol described in Cancer Chemotherapy Reports, Vol. 3, No. 3, 1972 which report is incorporated herein by reference.
Other known mechanisms of resistance for other classes of agents, such as gene amplification or target enzyme change or amplication, also need to be explored. The experiments summarized in Table 3 were conducted at the same time against both sublines using the same drug preparations. […] These experiments were repeated in a second laboratory as documented in Table 4. However, in these experiments the animals were held for 60 rather than 30 days to evaluate whether or not long-term survivors are produced after drug treatment in a more challenging setting.
This experiment (A8-00005 3LE31) was conducted at the Southern Research Institute, Birmingham, Ala. under the supervision of Dr. Daniel Griswold. The protocols were the same as those published previously (Geran et al., Cancer Chemotherapy Reports 3: No. 2, 1972 [Attachment 11]). 10^5 cells were implanted intraperitoneally in CD2Fl male mice on Day 0. Drug treatments were given intraperitoneally as single injections at the doses indicated on Days 1, 5 and 9 after tumor implantation. The diluent was saline except for NSC-271674 where 5% sodium bicarbonate was used. All drugs were prepared fresh on the day of injection, and all were administered in solution. Median survival times for both control and drug-treated mice were determined and expressed as a percentage (% T/C). Body weights were determined on Day 5 and expressed as a weight difference (body weight of the drug-treated animals minus that of the control animals in grams) (T-C). The diluent control animals lived a median of 8.4 days and gained 1.9 grams by Day 5 in this experiment. All animals, including Day 30 survivors, were used in the calculation of median survival times. The log10 change in tumor burden refers to the net log change in viable tumor cell population at the end of therapy (Rx) as compared to the start of therapy; e.g., a […] means that there was a […] and a 3 log change means there was a 1000-fold increase in tumor burden at the end of therapy. The tumor burden at the start of therapy was about 6.1×10^5 cells in this experiment. […]

[1] = test system: SC Implanted L1210 Leukemia; assay: Activity against SC implanted L1210 leukemia following intravenous administration, once daily Days 1-5 (Table 5); format: in vivo, CD2Fl male mice; conditions: for Body Weight Difference / Median % T/C / Median Survival Time: 5 mg/kg/inj IV; for Optimal Dose: IV once daily Days 1-5
Protocol: as §1
In another type of experiment the same platinum complexes were directly compared against the SC implanted L1210 following intravenous administration (Table 5).
This experiment (A8-00004 3LE32) was conducted at the Southern Research Institute, Birmingham, Ala. under the supervision of Dr. Daniel Griswold. The protocols were the same as those published previously (Attachment 11). 10^6 cells were implanted subcutaneously in CD2Fl male mice on Day 0. Drug treatments were given intravenously once daily at the doses indicated on Days 1-5 after tumor implantation. The dosage range tested included the highest and lowest doses indicated in the Table as well as intermediate values which were determined by multiplying each dose in turn by 0.5 starting with the highest dose. The diluent was saline except for NSC-271674 for which 5% sodium bicarbonate was used. All drugs were prepared fresh on the day of injection, and all were administered in solution. Median survival times for both control and drug-treated mice were determined and expressed as a percentage (% T/C). Body weights were determined on Day 5 and expressed as a weight difference (body weight of the drug-treated animals minus that of the control animals in grams) (T-C).

IP L1210 leukemia = assay: Mouse optimal (highest tolerated) dose, IP L1210 leukemia, Days 1, 5 and 9 schedule (Table 7); format: in vivo
Excerpt: *IP L1210 leukemia, Days 1, 5 and 9 schedule. Highest tolerated dose in a
least 2 of 3 experiments (i.e,. animal weight difference (testcontrol)

[2] = test system: bacteriophage lambda (lambda-lac Z fusion prophage); assay: Biochemical phage induction assay (BIA), induction of bacteriophage lambda (FIG. 1); format: cell-based, E. coli (BR 513)
Protocol: The platinum complexes are tested using the BIA quantitative tube assay for dose-dependent induction of bacteriophage lambda according to a previously published procedure of Sarma, D. et al. Chem. Biol. Interactions, 46: 219-232 (1983), which is incorporated herein by reference. A permeable strain of E. coli (BR 513) containing lambda phage is used to test all samples. Expression time for the assay is 5 hours at 38° C. Fresh dilutions of test samples are made in saline (0.85%) on the day of the experiment. Samples are made at 10×final concentration and dispensed according to assay procedure. Final concentrations are 300 μg/ml, 200 μg/ml, 100 μg/ml, 60 μg/ml, 25 μg/ml, 10 μg/ml and a zero control.
This strain of bacteria contains a chromosomally integrated lambda-lac Z fusion phage under control of the lambda repressor. Treatment with DNA-damaging agents leads to derepression of prophage and synthesis of β-galacto-sidase, product of the lac Z gene. β-galactosidase is detected by reaction with a substrate (O-nitrophenyl-D-galactopyranoside (ONPG)) to give a yellow-colored product. Tubes are incubated at 28° C. (a few minutes to several hours to an A420 ≈0.5-1.0). Color development is stopped by the addition of base (1M Na2 CO3), and the yellow color is measured by absorbance at 420 nm. The exact time required for color development is recorded. Enzyme Units=100 A420 /thr where A420 =absorbance at 420 nm; thr =time required to develop yellow color in hours. One enzyme unit is the approximate value of an uninduced control tube at zero time.
This assay detects a wide variety of compounds which interact with DNA. […] This finding may support the hypothesis that platinum IV complexes are chemically less reactive. However, in vivo there is evidence that platinum IV complexes may be reduced to platinum (II) complexes [Pendyala, L. Proceedings 13th International Cancer Congress, Seatle, Wash., #3034, page 531, (1982)]. […] It is noted that the four isomers are not equal in their ability to induce the prophage.

[3] = test system: IP-Implanted L1210/Cisplatin; assay: Comparison of isomers: long term survivors and weight differences in treating IP-implanted L1210/Cisplatin (Table 6); format: in vivo, mice
Excerpt: Comparative data for the others are as follows: 27 for trans d, 27 for trans d l and 13 for cis. […] The higher the ratio the more convenient it is to prepare a formulation for intravenous administration to patients which is shown in Table 7.

[4] = test system: L1210 and L1210/Cisplatin leukemia; assay: Total number of long-term survivors in Tables 2-4; format: in vivo, CD2Fl mice
Excerpt: If one summarizes the data in Tables 2-4 by totalling the number of long-term survivors, unexpected differences among the isomers become apparent. For example, the trans l compound produced 30 long-term survivors.

N.N.[Cl][Pt][Cl] [Cisplatin, cis-diamminedichloroplatinum (II), reference compound]
30 Day Survivors/Total (IP L1210/Cisplatin; 1.25 mg/kg/dose): 0/6 | Approx. Log10 Change in Tumor Burden at End of RX (IP L1210/Cisplatin; 1.25 mg/kg/dose): ~3.0 log10 | Median % T/C (IP L1210/Cisplatin; 1.25 mg/kg/dose): 104% | 30 Day Survivors/Total (IP L1210/Cisplatin; 5 mg/kg/dose): 0/6 | Approx. Log10 Change in Tumor Burden at End of RX (IP L1210/Cisplatin; 5 mg/kg/dose): ~3.1 log10 | Median % T/C (IP L1210/Cisplatin; 5 mg/kg/dose): 101% | 30 Day Survivors/Total (IP L1210/Cisplatin; 10 mg/kg/dose): 0/6 | Approx. Log10 Change in Tumor Burden at End of RX (IP L1210/Cisplatin; 10 mg/kg/dose): ~2.9 log10 | Median % T/C (IP L1210/Cisplatin; 10 mg/kg/dose): 108% | 30 Day Survivors/Total (IP L1210/Cisplatin; 20 mg/kg/dose): 0/6 | Median % T/C (IP L1210/Cisplatin; 20 mg/kg/dose): 86% | Activity against L1210/cisplatin (IP L1210/Cisplatin; mouse, in vivo): refractory | Body Weight Difference [1]: -5.7 Grams | Median % T/C [1]: 138% | Median Survival Time [1]: 14.3 days | Optimal Dose [1]: 5 mg/kg/inj | Mouse Optimal Dose (highest tolerated dose in at least 2 of 3 experiments) (IP L1210 leukemia): 10 mg/kg

Tetrachloro-cis-1,2-cyclohexanediamine platinum (IV)
30 Day Survivors/Total (IP L1210/Cisplatin; 1 mg/kg/dose): 0/6 | Approx. Log10 Change in Tumor Burden at End of RX (IP L1210/Cisplatin; 1 mg/kg/dose): ~3.0 log10 | Median % T/C (IP L1210/Cisplatin; 1 mg/kg/dose): 105% | 30 Day Survivors/Total (IP L1210/Cisplatin; 2 mg/kg/dose): 0/6 | Approx. Log10 Change in Tumor Burden at End of RX (IP L1210/Cisplatin; 2 mg/kg/dose): ~2.9 log10 | Median % T/C (IP L1210/Cisplatin; 2 mg/kg/dose): 110% | 30 Day Survivors/Total (IP L1210/Cisplatin; 4 mg/kg/dose): 0/6 | Approx. Log10 Change in Tumor Burden at End of RX (IP L1210/Cisplatin; 4 mg/kg/dose): ~2.9 log10 | Median % T/C (IP L1210/Cisplatin; 4 mg/kg/dose): 111% | 30 Day Survivors/Total (IP L1210/Cisplatin; 8 mg/kg/dose): 0/6 | Approx. Log10 Change in Tumor Burden at End of RX (IP L1210/Cisplatin; 8 mg/kg/dose): ~2.4 log10 | Median % T/C (IP L1210/Cisplatin; 8 mg/kg/dose): 138% | 30 Day Survivors/Total (IP L1210/Cisplatin; 16 mg/kg/dose): 3/6 | Approx. Log10 Change in Tumor Burden at End of RX (IP L1210/Cisplatin; 16 mg/kg/dose): ~-5.9 log10 | Median % T/C (IP L1210/Cisplatin; 16 mg/kg/dose): 322% | Body Weight Difference [1]: -3.3 Grams | Median % T/C [1]: 133% | Median Survival Time [1]: 13.7 days | Optimal Dose [1]: 5.0 mg/kg/inj | Effectiveness in inducing prophage [2]: practically inert | Ratio of 2/1 (weight difference / long-term survivors) [3]: 1.40 | Total Grams of Weight Difference [3]: -5.6 Grams | Total number of long-term survivors [3]: 4 | Total number of long-term survivors ([4]; Tables 2-4 summed): 13 | Relative biological activity ([4]; mouse, in vivo): relatively lower biological activity | Mouse Optimal Dose (highest tolerated dose in at least 2 of 3 experiments) (IP L1210 leukemia): 8 mg/kg
